Reference: ChEMBL document CHEMBL4507268 (2021)

Key:
Conditions in all cases: Compound concentration 1.0 uM
[1] = biological target: Tyrosine-protein kinase ABL1 (Homo sapiens) (UniProt P00519)
[2] = biological target: CDK18/Cyclin Y (Homo sapiens) (UniProt Q07002+Q8ND76)
[3] = biological target: Ephrin type-A receptor 2 (Homo sapiens) (UniProt P29317)
[4] = biological target: T1, Ephrin type-B receptor 1 (Homo sapiens) (UniProt P54762)
T1 sequence (whole entry): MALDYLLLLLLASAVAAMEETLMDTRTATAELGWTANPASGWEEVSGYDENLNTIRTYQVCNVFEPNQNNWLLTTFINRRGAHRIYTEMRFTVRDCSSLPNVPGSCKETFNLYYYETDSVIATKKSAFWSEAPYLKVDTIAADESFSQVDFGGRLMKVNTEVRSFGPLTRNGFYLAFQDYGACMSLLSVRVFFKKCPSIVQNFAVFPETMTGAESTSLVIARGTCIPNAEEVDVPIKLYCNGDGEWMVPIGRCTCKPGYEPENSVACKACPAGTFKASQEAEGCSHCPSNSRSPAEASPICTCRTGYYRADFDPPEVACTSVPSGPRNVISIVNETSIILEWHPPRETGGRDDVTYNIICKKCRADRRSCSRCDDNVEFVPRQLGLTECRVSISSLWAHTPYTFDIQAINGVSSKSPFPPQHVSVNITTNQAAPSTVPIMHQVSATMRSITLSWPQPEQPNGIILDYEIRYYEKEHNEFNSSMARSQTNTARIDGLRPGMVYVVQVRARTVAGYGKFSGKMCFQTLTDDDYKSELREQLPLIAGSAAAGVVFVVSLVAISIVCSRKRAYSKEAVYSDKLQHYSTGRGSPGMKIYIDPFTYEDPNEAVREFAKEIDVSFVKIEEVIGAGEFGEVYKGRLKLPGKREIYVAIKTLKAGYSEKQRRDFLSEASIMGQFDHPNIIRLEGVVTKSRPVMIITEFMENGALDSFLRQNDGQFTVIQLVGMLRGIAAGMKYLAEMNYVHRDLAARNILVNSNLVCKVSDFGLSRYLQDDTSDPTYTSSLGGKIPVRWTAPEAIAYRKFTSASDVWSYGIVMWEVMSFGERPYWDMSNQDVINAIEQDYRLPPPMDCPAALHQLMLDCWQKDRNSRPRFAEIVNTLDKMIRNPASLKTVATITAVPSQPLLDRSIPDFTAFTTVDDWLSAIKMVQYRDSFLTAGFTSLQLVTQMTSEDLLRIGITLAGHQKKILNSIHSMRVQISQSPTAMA

[5] = biological target: G protein-coupled receptor kinase 6 (Homo sapiens) (UniProt P43250)
Chain of G protein-coupled receptor kinase 6 (Homo sapiens) (P43250 whole entry, looked up): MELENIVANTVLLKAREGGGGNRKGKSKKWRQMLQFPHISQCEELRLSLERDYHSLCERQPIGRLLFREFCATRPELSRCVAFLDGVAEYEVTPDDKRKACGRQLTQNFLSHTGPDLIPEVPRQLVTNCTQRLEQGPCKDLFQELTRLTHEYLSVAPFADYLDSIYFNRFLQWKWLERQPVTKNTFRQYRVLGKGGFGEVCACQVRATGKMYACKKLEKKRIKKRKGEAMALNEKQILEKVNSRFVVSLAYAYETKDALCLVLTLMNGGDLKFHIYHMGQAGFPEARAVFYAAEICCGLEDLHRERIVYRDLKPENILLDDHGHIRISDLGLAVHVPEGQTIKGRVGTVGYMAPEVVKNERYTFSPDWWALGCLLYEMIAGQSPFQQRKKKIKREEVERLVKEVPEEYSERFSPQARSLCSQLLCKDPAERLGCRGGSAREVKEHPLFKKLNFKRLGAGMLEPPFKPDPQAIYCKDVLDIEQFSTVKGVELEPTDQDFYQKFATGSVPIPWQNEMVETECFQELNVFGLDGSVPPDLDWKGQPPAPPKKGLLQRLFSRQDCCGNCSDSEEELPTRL

[6] = biological target: Insulin-like growth factor 1 receptor (Homo sapiens) (UniProt P08069)
Chain of Insulin-like growth factor 1 receptor (Homo sapiens) (P08069 31-736 limits assumed): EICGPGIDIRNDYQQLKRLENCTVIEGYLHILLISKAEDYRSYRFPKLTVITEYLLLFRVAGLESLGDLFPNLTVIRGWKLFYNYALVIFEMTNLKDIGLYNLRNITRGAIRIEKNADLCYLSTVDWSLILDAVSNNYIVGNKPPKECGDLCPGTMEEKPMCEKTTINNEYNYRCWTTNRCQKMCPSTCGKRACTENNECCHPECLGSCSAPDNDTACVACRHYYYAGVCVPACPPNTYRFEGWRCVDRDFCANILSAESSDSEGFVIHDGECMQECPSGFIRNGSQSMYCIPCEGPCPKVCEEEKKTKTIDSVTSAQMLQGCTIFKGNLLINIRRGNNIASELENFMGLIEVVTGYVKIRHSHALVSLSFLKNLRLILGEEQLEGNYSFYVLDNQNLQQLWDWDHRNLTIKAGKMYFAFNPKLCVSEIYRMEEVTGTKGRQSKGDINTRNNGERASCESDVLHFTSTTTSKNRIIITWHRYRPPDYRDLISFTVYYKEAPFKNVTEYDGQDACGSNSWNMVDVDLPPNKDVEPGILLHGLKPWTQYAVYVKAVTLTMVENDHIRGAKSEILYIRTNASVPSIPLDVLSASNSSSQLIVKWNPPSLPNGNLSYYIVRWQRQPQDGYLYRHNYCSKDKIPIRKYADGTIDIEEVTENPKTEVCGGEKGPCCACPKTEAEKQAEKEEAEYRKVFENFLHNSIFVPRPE
Chain of Insulin-like growth factor 1 receptor (Homo sapiens) (P08069 741-1367 limits assumed): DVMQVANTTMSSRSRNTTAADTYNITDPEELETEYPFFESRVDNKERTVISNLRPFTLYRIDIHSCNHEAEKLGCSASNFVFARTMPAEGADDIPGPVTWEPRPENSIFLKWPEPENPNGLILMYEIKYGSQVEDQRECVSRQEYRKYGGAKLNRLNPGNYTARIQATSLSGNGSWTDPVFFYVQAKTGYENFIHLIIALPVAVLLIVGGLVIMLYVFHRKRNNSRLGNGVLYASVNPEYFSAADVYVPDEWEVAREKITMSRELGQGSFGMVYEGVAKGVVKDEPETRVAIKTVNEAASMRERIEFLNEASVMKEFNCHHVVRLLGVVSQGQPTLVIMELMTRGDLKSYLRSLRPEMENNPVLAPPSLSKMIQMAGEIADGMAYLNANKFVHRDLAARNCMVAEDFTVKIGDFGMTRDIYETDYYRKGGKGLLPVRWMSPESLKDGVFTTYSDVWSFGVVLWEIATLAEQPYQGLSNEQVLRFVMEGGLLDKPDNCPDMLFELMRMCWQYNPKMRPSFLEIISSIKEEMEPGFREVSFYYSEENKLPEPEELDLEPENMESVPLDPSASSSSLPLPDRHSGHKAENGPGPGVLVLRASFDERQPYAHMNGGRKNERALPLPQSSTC

[7] = biological target: Interleukin-1 receptor-associated kinase 1 (Homo sapiens) (UniProt P51617)
[8] = biological target: LIM domain kinase 1 (Homo sapiens) (UniProt P53667)
[9] = biological target: Mitogen-activated protein kinase kinase kinase kinase 5 (Homo sapiens) (UniProt Q9Y4K4)
[10] = biological target: MAP kinase-interacting serine/threonine-protein kinase 2 (Homo sapiens) (UniProt Q9HBH9)
[11] = biological target: T2, NUAK family SNF1-like kinase 2 (Homo sapiens) (UniProt Q9H093)
T2 sequence (whole entry): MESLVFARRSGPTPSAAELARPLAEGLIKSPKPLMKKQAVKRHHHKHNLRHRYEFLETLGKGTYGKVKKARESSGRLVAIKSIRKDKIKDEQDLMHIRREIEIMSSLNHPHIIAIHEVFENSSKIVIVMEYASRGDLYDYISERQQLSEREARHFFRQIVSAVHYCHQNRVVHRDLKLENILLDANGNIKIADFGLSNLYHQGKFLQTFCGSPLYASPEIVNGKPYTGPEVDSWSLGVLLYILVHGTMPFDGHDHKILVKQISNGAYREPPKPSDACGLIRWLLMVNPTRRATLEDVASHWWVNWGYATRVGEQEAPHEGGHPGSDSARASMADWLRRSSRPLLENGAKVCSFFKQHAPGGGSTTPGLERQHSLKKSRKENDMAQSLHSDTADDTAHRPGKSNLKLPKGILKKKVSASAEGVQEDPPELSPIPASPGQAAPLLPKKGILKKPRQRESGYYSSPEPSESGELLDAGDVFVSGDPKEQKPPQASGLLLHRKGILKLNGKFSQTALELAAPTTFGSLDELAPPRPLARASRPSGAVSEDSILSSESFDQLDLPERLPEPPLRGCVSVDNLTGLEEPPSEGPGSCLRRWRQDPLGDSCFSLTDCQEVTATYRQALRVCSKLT

[12] = biological target: Protein kinase C gamma type (Homo sapiens) (UniProt P05129)
[13] = biological target: Interferon-induced, double-stranded RNA-activated protein kinase (Homo sapiens) (UniProt P19525)
Chain of Interferon-induced, double-stranded RNA-activated protein kinase (Homo sapiens) (P19525 whole entry): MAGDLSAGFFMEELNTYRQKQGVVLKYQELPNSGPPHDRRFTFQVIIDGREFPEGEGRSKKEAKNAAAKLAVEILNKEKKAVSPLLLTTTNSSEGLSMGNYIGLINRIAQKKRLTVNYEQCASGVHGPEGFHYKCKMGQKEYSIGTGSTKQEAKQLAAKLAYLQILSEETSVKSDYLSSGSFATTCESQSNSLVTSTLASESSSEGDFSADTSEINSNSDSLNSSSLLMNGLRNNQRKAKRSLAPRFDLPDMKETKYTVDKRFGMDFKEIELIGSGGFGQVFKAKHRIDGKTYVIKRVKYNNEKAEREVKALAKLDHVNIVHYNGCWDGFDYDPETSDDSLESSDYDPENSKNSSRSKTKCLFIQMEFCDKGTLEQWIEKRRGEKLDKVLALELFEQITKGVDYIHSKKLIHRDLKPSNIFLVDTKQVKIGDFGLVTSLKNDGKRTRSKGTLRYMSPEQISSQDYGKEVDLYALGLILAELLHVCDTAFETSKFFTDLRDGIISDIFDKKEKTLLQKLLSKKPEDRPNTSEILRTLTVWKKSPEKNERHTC

[14] = biological target: Serine/threonine-protein kinase N1 (Homo sapiens) (UniProt Q16512)
Chain of Serine/threonine-protein kinase N1 (Homo sapiens) (Q16512 2-942 limits assumed): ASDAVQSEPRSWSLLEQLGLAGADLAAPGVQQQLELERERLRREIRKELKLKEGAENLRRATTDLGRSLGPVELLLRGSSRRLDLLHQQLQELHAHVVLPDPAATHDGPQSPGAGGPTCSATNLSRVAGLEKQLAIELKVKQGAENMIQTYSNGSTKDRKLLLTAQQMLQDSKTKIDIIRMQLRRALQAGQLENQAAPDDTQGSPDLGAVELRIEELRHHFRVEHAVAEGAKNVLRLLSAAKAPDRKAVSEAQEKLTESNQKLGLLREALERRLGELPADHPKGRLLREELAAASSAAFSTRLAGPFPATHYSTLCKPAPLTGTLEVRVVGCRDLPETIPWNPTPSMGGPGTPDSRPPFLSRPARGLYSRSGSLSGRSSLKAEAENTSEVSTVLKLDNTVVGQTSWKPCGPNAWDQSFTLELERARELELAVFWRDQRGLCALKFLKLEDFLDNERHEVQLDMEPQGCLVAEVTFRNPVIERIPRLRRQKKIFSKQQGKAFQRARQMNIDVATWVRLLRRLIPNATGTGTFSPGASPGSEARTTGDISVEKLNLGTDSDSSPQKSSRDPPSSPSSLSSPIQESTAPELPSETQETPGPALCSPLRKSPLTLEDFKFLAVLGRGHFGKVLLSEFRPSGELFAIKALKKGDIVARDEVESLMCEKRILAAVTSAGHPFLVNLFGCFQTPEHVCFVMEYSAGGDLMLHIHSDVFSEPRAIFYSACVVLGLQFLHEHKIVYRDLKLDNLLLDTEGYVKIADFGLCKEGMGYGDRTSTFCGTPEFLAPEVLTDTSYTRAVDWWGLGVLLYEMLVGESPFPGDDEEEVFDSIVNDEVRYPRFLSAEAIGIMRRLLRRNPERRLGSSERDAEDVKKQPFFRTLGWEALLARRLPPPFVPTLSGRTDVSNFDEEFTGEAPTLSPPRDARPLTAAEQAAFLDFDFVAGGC

[15] = biological target: T3, Mitogen-activated protein kinase 13 (Homo sapiens) (UniProt O15264)
T3 sequence (whole entry): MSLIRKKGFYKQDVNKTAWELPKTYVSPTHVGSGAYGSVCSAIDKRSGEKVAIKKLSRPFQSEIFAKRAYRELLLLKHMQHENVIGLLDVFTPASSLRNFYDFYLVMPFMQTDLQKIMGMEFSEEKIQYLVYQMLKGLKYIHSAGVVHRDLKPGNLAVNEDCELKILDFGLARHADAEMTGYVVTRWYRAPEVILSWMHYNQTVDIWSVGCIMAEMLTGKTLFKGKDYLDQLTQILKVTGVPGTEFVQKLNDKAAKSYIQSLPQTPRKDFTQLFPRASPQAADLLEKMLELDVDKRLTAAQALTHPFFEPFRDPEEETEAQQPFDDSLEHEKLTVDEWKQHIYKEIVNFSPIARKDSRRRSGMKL

[16] = biological target: Tau-tubulin kinase 2 (Homo sapiens) (UniProt Q6IQ55)
[17] = biological target: Serine/threonine-protein kinase VRK2 (Homo sapiens) (UniProt Q86Y07)
[18] = biological target: Mitogen-activated protein kinase kinase kinase 20 (Homo sapiens) (UniProt Q9NYL2)
Chain of Mitogen-activated protein kinase kinase kinase 20 (Homo sapiens) (Q9NYL2 2-800 limits assumed): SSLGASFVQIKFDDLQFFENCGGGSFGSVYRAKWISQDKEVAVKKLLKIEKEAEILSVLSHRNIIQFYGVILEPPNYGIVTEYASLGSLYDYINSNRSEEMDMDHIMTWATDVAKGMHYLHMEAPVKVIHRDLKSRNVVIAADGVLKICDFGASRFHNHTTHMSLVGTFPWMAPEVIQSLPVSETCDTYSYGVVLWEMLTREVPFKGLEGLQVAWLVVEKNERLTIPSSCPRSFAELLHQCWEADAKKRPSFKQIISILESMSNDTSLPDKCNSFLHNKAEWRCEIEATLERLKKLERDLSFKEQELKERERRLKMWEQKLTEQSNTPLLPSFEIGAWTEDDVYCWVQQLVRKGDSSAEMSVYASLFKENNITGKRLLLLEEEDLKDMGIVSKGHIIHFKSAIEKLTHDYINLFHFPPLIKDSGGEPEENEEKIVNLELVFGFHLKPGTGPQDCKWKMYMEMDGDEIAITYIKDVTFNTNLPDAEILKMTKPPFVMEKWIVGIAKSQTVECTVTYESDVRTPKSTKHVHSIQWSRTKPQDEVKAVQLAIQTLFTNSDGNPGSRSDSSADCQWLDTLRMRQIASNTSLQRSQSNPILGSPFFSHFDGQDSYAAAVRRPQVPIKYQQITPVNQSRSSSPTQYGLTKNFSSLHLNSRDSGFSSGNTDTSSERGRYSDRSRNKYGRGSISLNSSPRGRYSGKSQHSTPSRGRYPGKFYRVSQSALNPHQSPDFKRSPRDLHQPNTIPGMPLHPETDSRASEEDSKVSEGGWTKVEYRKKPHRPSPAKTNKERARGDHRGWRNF

Measured: % residual kinase activity

CN1CCN(c2cnc3c(C4CCN(C(=O)c5ccc(OC(F)(F)F)cc5N)CC4)ncnc3c2)CC1 [BAY-885]
inactive: [1] 100% | [2] 100% | [3] 100% | [4] 105% | [5] 111% | [6] 90% | [7] 110% | [8] 93% | [9] 99% | [10] 99% | [11] 111% | [12] 120% | [13] 115% | [14] 114% | [15] 112% | [16] 98% | [17] 106% | [18] 100%
